In the NIST ThermoML archive (doi:10.1016/j.jct.2015.06.010):
Numbers after ± are expanded uncertainties.

Settings: 101.33 kPa, Liquid; for electrical conductivity: Alternating current cell with electrodes; for viscosity: Concentric cylinders viscometry; for mass density: Vibrating tube method

SMILES: Cn1cc[n+](CC#N)c1.O=S(=O)([N-]S(=O)(=O)C(F)(F)F)C(F)(F)F
- electrical conductivity (283.15 K): 0.0283 ± 0.0006 S/m
- viscosity (283.15 K): 1140 ± 50 mPa·s
- mass density (283.15 K): 1625.9 ± 1.2 kg/m3
- electrical conductivity (288.15 K): 0.0439 ± 0.001 S/m
- viscosity (288.15 K): 708.6 ± 28 mPa·s
- mass density (288.15 K): 1620.5 ± 1.2 kg/m3
- electrical conductivity (293.15 K): 0.0648 ± 0.0014 S/m
- viscosity (293.15 K): 463.4 ± 16 mPa·s
- mass density (293.15 K): 1615 ± 1.2 kg/m3
- electrical conductivity (298.15 K): 0.0919 ± 0.0019 S/m
- viscosity (298.15 K): 315.5 ± 10 mPa·s
- mass density (298.15 K): 1609.7 ± 1.2 kg/m3
- electrical conductivity (303.15 K): 0.129 ± 0.0027 S/m
- viscosity (303.15 K): 222.8 ± 6.4 mPa·s
- mass density (303.15 K): 1604.6 ± 1.2 kg/m3
- electrical conductivity (308.15 K): 0.173 ± 0.0036 S/m
- viscosity (308.15 K): 162.4 ± 4.2 mPa·s
- mass density (308.15 K): 1599.6 ± 1.2 kg/m3
- electrical conductivity (313.15 K): 0.225 ± 0.005 S/m
- viscosity (313.15 K): 121.7 ± 2.9 mPa·s
- mass density (313.15 K): 1594.6 ± 1.2 kg/m3
- electrical conductivity (318.15 K): 0.285 ± 0.006 S/m
- viscosity (318.15 K): 93.56 ± 2.1 mPa·s
- mass density (318.15 K): 1589.8 ± 1.2 kg/m3
- electrical conductivity (323.15 K): 0.36 ± 0.007 S/m
- viscosity (323.15 K): 73.61 ± 1.6 mPa·s
- mass density (323.15 K): 1584.8 ± 1.2 kg/m3
- electrical conductivity (328.15 K): 0.441 ± 0.009 S/m
- viscosity (328.15 K): 58.99 ± 1.2 mPa·s
- mass density (328.15 K): 1579.9 ± 1.2 kg/m3
- electrical conductivity (333.15 K): 0.536 ± 0.011 S/m
- viscosity (333.15 K): 47.93 ± 1 mPa·s
- mass density (333.15 K): 1575.1 ± 1.2 kg/m3
- electrical conductivity (338.15 K): 0.644 ± 0.013 S/m
- viscosity (338.15 K): 39.7 ± 0.84 mPa·s
- mass density (338.15 K): 1570.2 ± 1.2 kg/m3
- electrical conductivity (343.15 K): 0.756 ± 0.015 S/m
- viscosity (343.15 K): 33.27 ± 0.7 mPa·s
- mass density (343.15 K): 1565.4 ± 1.2 kg/m3
- electrical conductivity (348.15 K): 0.878 ± 0.018 S/m
- viscosity (348.15 K): 28.11 ± 0.59 mPa·s
- mass density (348.15 K): 1560.6 ± 1.2 kg/m3
- electrical conductivity (353.15 K): 1.01 ± 0.02 S/m
- viscosity (353.15 K): 24.06 ± 0.51 mPa·s
- mass density (353.15 K): 1555.8 ± 1.2 kg/m3

SMILES: Cn1cc[n+](CCO)c1.O=S(=O)([N-]S(=O)(=O)C(F)(F)F)C(F)(F)F
- electrical conductivity (283.15 K): 0.132 ± 0.0028 S/m
- viscosity (283.15 K): 213.4 ± 6 mPa·s
- mass density (283.15 K): 1588.6 ± 1.2 kg/m3
- electrical conductivity (288.15 K): 0.179 ± 0.0037 S/m
- viscosity (288.15 K): 153.7 ± 3.9 mPa·s
- mass density (288.15 K): 1583.6 ± 1.2 kg/m3
- electrical conductivity (293.15 K): 0.237 ± 0.005 S/m
- viscosity (293.15 K): 114.1 ± 2.7 mPa·s
- mass density (293.15 K): 1578.6 ± 1.2 kg/m3
- electrical conductivity (298.15 K): 0.305 ± 0.006 S/m
- viscosity (298.15 K): 86.89 ± 1.9 mPa·s
- mass density (298.15 K): 1573.7 ± 1.2 kg/m3
- electrical conductivity (303.15 K): 0.387 ± 0.008 S/m
- viscosity (303.15 K): 67.66 ± 1.5 mPa·s
- mass density (303.15 K): 1568.8 ± 1.2 kg/m3
- electrical conductivity (308.15 K): 0.481 ± 0.01 S/m
- viscosity (308.15 K): 53.88 ± 1.1 mPa·s
- mass density (308.15 K): 1563.9 ± 1.2 kg/m3
- electrical conductivity (313.15 K): 0.589 ± 0.012 S/m
- viscosity (313.15 K): 43.52 ± 0.92 mPa·s
- mass density (313.15 K): 1559.1 ± 1.2 kg/m3
- electrical conductivity (318.15 K): 0.704 ± 0.014 S/m
- viscosity (318.15 K): 35.85 ± 0.76 mPa·s
- mass density (318.15 K): 1554.2 ± 1.2 kg/m3
- electrical conductivity (323.15 K): 0.83 ± 0.017 S/m
- viscosity (323.15 K): 29.83 ± 0.63 mPa·s
- mass density (323.15 K): 1549.4 ± 1.2 kg/m3
- electrical conductivity (328.15 K): 0.967 ± 0.02 S/m
- viscosity (328.15 K): 25.2 ± 0.53 mPa·s
- mass density (328.15 K): 1544.6 ± 1.2 kg/m3
- electrical conductivity (333.15 K): 1.11 ± 0.022 S/m
- viscosity (333.15 K): 21.52 ± 0.45 mPa·s
- mass density (333.15 K): 1539.8 ± 1.2 kg/m3
- electrical conductivity (338.15 K): 1.28 ± 0.026 S/m
- viscosity (338.15 K): 18.46 ± 0.39 mPa·s
- mass density (338.15 K): 1535 ± 1.2 kg/m3
- electrical conductivity (343.15 K): 1.45 ± 0.029 S/m
- viscosity (343.15 K): 16.08 ± 0.34 mPa·s
- mass density (343.15 K): 1530.2 ± 1.2 kg/m3
- electrical conductivity (348.15 K): 1.63 ± 0.033 S/m
- viscosity (348.15 K): 14.06 ± 0.3 mPa·s
- mass density (348.15 K): 1525.5 ± 1.2 kg/m3
- electrical conductivity (353.15 K): 1.81 ± 0.037 S/m
- viscosity (353.15 K): 12.44 ± 0.26 mPa·s
- mass density (353.15 K): 1520.7 ± 1.2 kg/m3
